Measured values as given in ChEMBL document CHEMBL3232809, “Synthesis, antibiotic activity and structure-activity relationship study of some 3-enaminetetramic acids” (2014).
≈ marks a conversion by molar mass, not a printed value.

Key:
Type in all cases: functional
Streptococcus pneumoniae [1] = assay: Antimicrobial activity against penicillin- and erythromycin-resistant Streptococcus pneumoniae
Streptococcus pneumoniae [2] = assay: Antimicrobial activity against penicillin- and erythromycin-resistant Streptococcus pneumoniae in presence of 2.5% horse blood
Staphylococcus aureus [3] = assay: Antimicrobial activity against methicillin-sensitive Staphylococcus aureus ATCC 13709
Staphylococcus aureus [4] = assay: Antimicrobial activity against vancomycin-susceptible Staphylococcus aureus ATCC 25923
Staphylococcus aureus [5] = assay: Antimicrobial activity against Staphylococcus aureus Oxford
Staphylococcus aureus [6] = assay: Antimicrobial activity against methicillin-resistant Staphylococcus aureus
Enterococcus faecalis = assay: Antimicrobial activity against vancomycin-susceptible Enterococcus faecalis ATCC 29212
Enterococcus faecium = assay: Antimicrobial activity against vancomycin-resistant Enterococcus faecium
Streptococcus pneumoniae [7] = assay: Antimicrobial activity against erythromycin-susceptible Streptococcus pneumoniae ATCC 49619
Haemophilus influenzae [8] = assay: Antimicrobial activity against Haemophilus influenzae ATCC 31517 MMSA
Haemophilus influenzae [9] = assay: Antimicrobial activity against LS2 Efflux knock-out Haemophilus influenzae
Escherichia coli [10] = assay: Antimicrobial activity against Escherichia coli ATCC 25922
Escherichia coli [11] = assay: Antimicrobial activity against Escherichia coli 50
Pseudomonas aeruginosa = assay: Antimicrobial activity against Pseudomonas aeruginosa ATCC 27853
Escherichia coli [12] = assay: Antimicrobial activity against Escherichia coli 49

SMILES | MIC (Streptococcus pneumoniae [1]) | MIC (Streptococcus pneumoniae [2]) | MIC (Staphylococcus aureus [3]) | MIC (Staphylococcus aureus [4]) | MIC (Staphylococcus aureus [5]) | MIC (Staphylococcus aureus [6]) | MIC (Enterococcus faecalis) | MIC (Enterococcus faecium) | MIC (Streptococcus pneumoniae [7]) | MIC (Haemophilus influenzae [8]) | MIC (Haemophilus influenzae [9]) | MIC (Escherichia coli [10]) | MIC (Escherichia coli [11]) | MIC (Pseudomonas aeruginosa) | MIC (Escherichia coli [12])
CCOC(=O)[C@]12CO[C@H](C(C)(C)C)N1C(=O)/C(=C(\C)NCCOc1ccccc1)C2=O | 1 µg/mL (≈ 2.32 µM) | 2 µg/mL | 64 µg/mL (≈ 149 µM) | 64 µg/mL (≈ 149 µM) | > 64 µg/mL | 64 µg/mL (≈ 149 µM) | 64 µg/mL (≈ 149 µM) | 8 µg/mL (≈ 18.6 µM) | 2 µg/mL (≈ 4.65 µM) | > 64 µg/mL | 32 µg/mL (≈ 74.3 µM) | > 32 µg/mL | > 32 µg/mL | > 32 µg/mL | > 32 µg/mL
C/C(NCCOc1ccccc1Cl)=C1/C(=O)CN(C(=O)OC(C)(C)C)C1=O | > 64 µg/mL | > 64 µg/mL |  | > 64 µg/mL | > 64 µg/mL | > 64 µg/mL | > 64 µg/mL | > 64 µg/mL | > 64 µg/mL | > 64 µg/mL | 32 µg/mL (≈ 81 µM) | > 32 µg/mL | > 32 µg/mL | > 32 µg/mL | > 32 µg/mL
CCCCCCCCCCC/C(NCCCOC(C)C)=C1\C(=O)CNC1=O | 4 µg/mL (≈ 10.5 µM) | 32 µg/mL | 16 µg/mL (≈ 42 µM) | > 64 µg/mL | 16 µg/mL (≈ 42 µM) | 64 µg/mL (≈ 168 µM) | 16 µg/mL (≈ 42 µM) | 8 µg/mL (≈ 21 µM) | 4 µg/mL (≈ 10.5 µM) | > 64 µg/mL | 2 µg/mL (≈ 5.26 µM) | > 32 µg/mL | > 32 µg/mL | > 32 µg/mL | > 32 µg/mL
CCCCCCCCC/C(=C1\C(=O)CNC1=O)N1CCCCC1 | 16 µg/mL (≈ 49.9 µM) | 16 µg/mL | 16 µg/mL (≈ 49.9 µM) | 16 µg/mL (≈ 49.9 µM) | 16 µg/mL (≈ 49.9 µM) | 16 µg/mL (≈ 49.9 µM) | 16 µg/mL (≈ 49.9 µM) | 8 µg/mL (≈ 25 µM) | > 64 µg/mL | 64 µg/mL (≈ 200 µM) | > 64 µg/mL | > 32 µg/mL | > 32 µg/mL | > 32 µg/mL | > 32 µg/mL
CCCCCCCCCCCCC/C(NCCCN)=C1\C(=O)CN(CCCCCC)C1=O | 8 µg/mL (≈ 17.8 µM) | 32 µg/mL | 2 µg/mL (≈ 4.45 µM) | 4 µg/mL (≈ 8.89 µM) | 4 µg/mL (≈ 8.89 µM) | 4 µg/mL (≈ 8.89 µM) | 2 µg/mL (≈ 4.45 µM) | 1 µg/mL (≈ 2.22 µM) | 2 µg/mL (≈ 4.45 µM) | 64 µg/mL (≈ 142 µM) | 32 µg/mL (≈ 71.2 µM) | > 32 µg/mL | > 32 µg/mL | > 32 µg/mL | > 32 µg/mL
CCCCCCCCCCCCC/C(NCCCNC(=O)COCC(=O)O)=C1\C(=O)CN(CCCCCC)C1=O | 16 µg/mL (≈ 28.3 µM) | 64 µg/mL | > 64 µg/mL | > 64 µg/mL | > 64 µg/mL | > 64 µg/mL | 16 µg/mL (≈ 28.3 µM) | 16 µg/mL (≈ 28.3 µM) | 8 µg/mL (≈ 14.1 µM) | > 64 µg/mL | > 64 µg/mL | > 32 µg/mL | > 32 µg/mL | > 32 µg/mL | > 32 µg/mL
CCCCCCCCCCC/C(Nc1ccc(NC(=O)COCC(=O)O)cc1)=C1\C(=O)CN(CCCCCC)C1=O | 2 µg/mL (≈ 3.5 µM) | > 64 µg/mL | > 64 µg/mL | > 64 µg/mL | > 64 µg/mL | > 64 µg/mL | > 64 µg/mL | > 64 µg/mL | 2 µg/mL (≈ 3.5 µM) | > 64 µg/mL | > 64 µg/mL | > 32 µg/mL | > 32 µg/mL | > 32 µg/mL | > 32 µg/mL
CCCCCCN1CC(=O)/C(=C(/NC2CCCCC2)C2CCCCC2)C1=O | 2 µg/mL (≈ 5.34 µM) | 64 µg/mL | > 64 µg/mL | > 64 µg/mL | > 64 µg/mL | > 64 µg/mL | > 64 µg/mL | > 64 µg/mL | 2 µg/mL (≈ 5.34 µM) | > 64 µg/mL | > 64 µg/mL | > 32 µg/mL | > 32 µg/mL | > 32 µg/mL | > 32 µg/mL
CCCC(=O)N1CC(=O)/C(=C(\CC23CC4CC(C)(CC(C)(C4)C2)C3)NCCCN2CCOCC2)C1=O | 16 µg/mL (≈ 32 µM) | 32 µg/mL | > 64 µg/mL | > 64 µg/mL | > 64 µg/mL | > 64 µg/mL | > 64 µg/mL | > 64 µg/mL | 16 µg/mL (≈ 32 µM) | > 64 µg/mL | 8 µg/mL (≈ 16 µM) | > 32 µg/mL | > 32 µg/mL | > 32 µg/mL | > 32 µg/mL
CCCCC/C(NC(C)CCCN(CC)CC)=C1\C(=O)C(CCSC)N(C(=O)CC(C)CC(C)(C)C)C1=O (configuration not stated) | 4 µg/mL (≈ 7.25 µM) | 8 µg/mL | 16 µg/mL (≈ 29 µM) | 16 µg/mL (≈ 29 µM) | 8 µg/mL (≈ 14.5 µM) | 16 µg/mL (≈ 29 µM) | 16 µg/mL (≈ 29 µM) | 8 µg/mL (≈ 14.5 µM) | 8 µg/mL (≈ 14.5 µM) | > 64 µg/mL | 8 µg/mL (≈ 14.5 µM) | > 32 µg/mL | > 32 µg/mL | > 32 µg/mL | > 32 µg/mL
CCCCCCCCCCC/C(NCCCOC(C)C)=C1/C(=O)N[C@@H](CCCC(=O)NCCCOC(C)C)C1=O | 16 µg/mL (≈ 28.3 µM) | > 64 µg/mL | > 64 µg/mL | > 64 µg/mL | > 64 µg/mL | > 64 µg/mL | > 64 µg/mL | > 64 µg/mL | > 64 µg/mL | > 64 µg/mL | 8 µg/mL (≈ 14.1 µM) | > 32 µg/mL | > 32 µg/mL | > 32 µg/mL | > 32 µg/mL
CCCCCCCCCCC/C(NCCCOC(C)C)=C1\C(=O)[C@@H]2CCCC(=O)N2C1=O | 16 µg/mL (≈ 35.7 µM) | > 64 µg/mL | > 64 µg/mL | > 64 µg/mL | > 64 µg/mL | > 64 µg/mL | > 64 µg/mL | > 64 µg/mL | > 64 µg/mL | > 64 µg/mL | 4 µg/mL (≈ 8.92 µM) | > 32 µg/mL | > 32 µg/mL | > 32 µg/mL | > 32 µg/mL
CCCCCCCCC/C(NC(C)CCCN(CC)CC)=C1/C(=O)N2[C@@H](C(C)(C)C)OC[C@]2(C(=O)OC)C1=O (some centres not stated) | 4 µg/mL (≈ 7.28 µM) | 16 µg/mL | 16 µg/mL (≈ 29.1 µM) | 16 µg/mL (≈ 29.1 µM) | 16 µg/mL (≈ 29.1 µM) | 16 µg/mL (≈ 29.1 µM) | 16 µg/mL (≈ 29.1 µM) | 8 µg/mL (≈ 14.6 µM) | 4 µg/mL (≈ 7.28 µM) | > 64 µg/mL | > 64 µg/mL | > 32 µg/mL | > 32 µg/mL | > 32 µg/mL | > 32 µg/mL
CCOC(=O)[C@]12CO[C@H](C(C)(C)C)N1C(=O)/C(=C(/CC(F)(F)C(F)(F)C(F)(F)C(F)(F)C(F)(F)F)NCCCN1CCOCC1)C2=O | 8 µg/mL (≈ 11.3 µM) | 16 µg/mL | 32 µg/mL (≈ 45.4 µM) | 16 µg/mL (≈ 22.7 µM) | 16 µg/mL (≈ 22.7 µM) | 32 µg/mL (≈ 45.4 µM) | 32 µg/mL (≈ 45.4 µM) | 16 µg/mL (≈ 22.7 µM) | 16 µg/mL (≈ 22.7 µM) | > 64 µg/mL | 8 µg/mL (≈ 11.3 µM) | > 32 µg/mL | > 32 µg/mL | > 32 µg/mL | > 32 µg/mL
O=C(O)c1cn(C2CC2)c2cc(N3CCNCC3)c(F)cc2c1=O [CIPROFLOXACIN] | 1 µg/mL (≈ 3.02 µM) | 1 µg/mL | 0.12 µg/mL (≈ 0.362 µM) | 0.5 µg/mL (≈ 1.51 µM) | 0.12 µg/mL (≈ 0.362 µM) |  | 1 µg/mL (≈ 3.02 µM) | 32 µg/mL (≈ 96.6 µM) | 1 µg/mL (≈ 3.02 µM) | 0.5 µg/mL (≈ 1.51 µM) | ≤ 0.06 µg/mL |  |  |  | 
CC(=O)NC[C@H]1CN(c2ccc(N3CCOCC3)c(F)c2)C(=O)O1 [LINEZOLID] |  |  |  |  |  |  |  | 2 µg/mL (≈ 5.93 µM) |  | 16 µg/mL (≈ 47.4 µM) | 4 µg/mL (≈ 11.9 µM) |  |  |  | 
